Laboratory results reported in ChEMBL document CHEMBL5120827, “Metabolomics and Genomics Approach for the Discovery of Serrawettin W2 Lipopeptides from Serratia marcescens NP2” (J Nat Prod, 2022).

System: Enterococcus faecium
Assay: Antibacterial activity against clinical isolate Enterococcus faecium assessed as reduction in microbial growth by broth microdilution
Assay type: functional, organism-based

CCCCCCCCCC1CC(=O)N[C@@H](CC(C)C)C(=O)N[C@@H](CO)C(=O)N[C@@H]([C@@H](C)O)C(=O)N[C@@H](Cc2ccccc2)C(=O)N[C@@H](C(C)C)C(=O)O1 (stereo not given in full)
MIC: > 125 µg/mL

CCCCCC1CC(=O)N[C@H](CC(C)C)C(=O)N[C@@H](CO)C(=O)N[C@@H]([C@@H](C)O)C(=O)N[C@@H](Cc2ccccc2)C(=O)N[C@@H](CC(C)C)C(=O)O1 (stereo not given in full)
MIC: > 125 µg/mL

CCCCCC1CC(=O)N[C@H](CC(C)C)C(=O)N[C@@H](CO)C(=O)N[C@@H]([C@@H](C)O)C(=O)N[C@@H](Cc2ccccc2)C(=O)N[C@@H](C(C)C)C(=O)O1 (stereo not given in full)
MIC: > 125 µg/mL

CCCCCCCC1CC(=O)N[C@H](CC(C)C)C(=O)N[C@@H](CO)C(=O)N[C@@H]([C@@H](C)O)C(=O)N[C@@H](Cc2ccccc2)C(=O)N[C@@H](CC(C)C)C(=O)O1 (stereo not given in full)
IC50: 8.4 µg/mL | MIC: 15.6 µg/mL

CCCCCC1CC(=O)N[C@H](CC(C)C)C(=O)N[C@@H](CO)C(=O)N[C@@H]([C@@H](C)O)C(=O)N[C@@H](Cc2ccccc2)C(=O)N[C@@H]([C@@H](C)CC)C(=O)O1 (stereo not given in full)
IC50: 53.1 µg/mL | MIC: 62.5 µg/mL

CCCCCCCC1CC(=O)N[C@@H](CC(C)C)C(=O)N[C@@H](CO)C(=O)N[C@@H]([C@@H](C)O)C(=O)N[C@@H](Cc2ccccc2)C(=O)N[C@@H](C(C)C)C(=O)O1 (stereo not given in full)
MIC: > 125 µg/mL

CCCCCCCCCC1CC(=O)N[C@H](CC(C)C)C(=O)N[C@@H](CO)C(=O)N[C@@H]([C@@H](C)O)C(=O)N[C@@H](Cc2ccccc2)C(=O)N[C@@H]([C@@H](C)CC)C(=O)O1 (stereo not given in full)
MIC: > 125 µg/mL

CCCCCCCCCC1CC(=O)N[C@H](CC(C)C)C(=O)N[C@@H](CO)C(=O)N[C@@H]([C@@H](C)O)C(=O)N[C@@H](Cc2ccccc2)C(=O)N[C@@H](CC(C)C)C(=O)O1 (stereo not given in full)
MIC: > 125 µg/mL
